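Five compound concentrations were applied to cells in 96-well plates for 48 hours; endpoints were derived by simple linear interpolation of the resulting dose-response curve. GI50 is the concentration that inhibits growth by half. TGI marks complete inhibition of growth.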 Where only a bound is given, the exact number is not on record here.

For the first test, the system named is SW-620 colon. The test is described as follows: DTP human tumour cell line panel, 48 h.
With `O=C(Nc1ccc(Cl)cc1)c1cccc(NC2=C(Cl)C(=O)N(Cc3ccccc3)C2=O)c1`, the GI50 was 16.3 µM and the TGI is 43.6 µM.
Taken in the same sequence, the figures for `Nc1ncnc2n[nH]c(Nc3ccc(F)cc3)c12` were 18.2 µM and greater than 100 µM.
On to `CCN(CC)c1ccc(-c2cc(-c3cc(OC)c(OC)c(OC)c3)nc(N3CCOCC3)c2C#N)cc1`, for which the GI50 is 3.3 µM and the TGI is greater than 100 µM.
On to `CC(=O)OC1=CC(n2cc(F)c(=O)[nH]c2=O)OC(C)C1=O` (stereo not given), for which the TGI is greater than 100 µM.
Regarding `CC(=O)[C@@]12O[C@@H]1CC1C3CCC4=CC(O)CCC4(C)C3CCC12C` (stereo not given in full), the GI50 is 39.5 µM and the TGI is greater than 100 µM.
Molecule `NC1(C(=O)OCc2ccccc2)CCCC1` displayed a TGI greater than 100 µM.
In the case of `Cc1cc(/C=C/c2ccc3cc(N(C)C)ccc3[n+]2C)c(C)n1-c1ccccc1`, the GI50 was 0.174 µM and the TGI was found to be 7.79 µM.
For the molecule `Cn1cnc([N+](=O)[O-])c1S(=O)(=O)Oc1cccc2ccccc12`, the GI50 was 1.36 µM and the TGI is 2.89 µM.
Molecule `CCCC(=O)OC1CC(n2cc(F)c(=O)[nH]c2=O)OC1COP(=O)(OCC(Cl)(Cl)Cl)OCC(Cl)(Cl)Cl` (stereo not given) showed a TGI greater than 100 µM.
Still for that read-out and setting: then `COc1cc(OC)cc(-c2cc(=O)c3c(OC)c(OC)c(OC)c(OC)c3o2)c1`, with greater than 100 µM.

The next test relates to MCF7 breast. The test is described as follows: DTP human tumour cell line panel, 48 h.
As for `CCN1CCN(c2nc(C)cc(N(CCNc3ccnc4cc(Cl)ccc34)Cc3ccc4c(c3)OCO4)n2)CC1`, the GI50 is 1.98 µM and the TGI was determined as 5.89 µM.
Regarding `COc1c(Cl)c(=O)oc2ccc(Cl)cc12`, the TGI was greater than 100 µM.
Still for that read-out and setting: next, `NS(=O)(=O)c1cc(Br)c(N=Nc2ccc(O)c3ncccc23)c(Br)c1`: 38.5 µM.
As to `Cc1cc(I)cc(CN(C)CCCN2CCCCC2)c1O`, the GI50 is 16.7 µM and the TGI was 35.9 µM.
`COc1cc(NCc2ccc3oc(=O)c(-c4ccccc4)nc3c2)cc(OC)c1OC`: the TGI was greater than 10 µM.
For the molecule `CN(C(=O)c1ccc(C(F)(F)F)cc1)c1ccc(Oc2ccc3c(c2)cc(C(=O)N2CCN(Cc4ccc(OC(F)F)cc4)CC2)n3C)nc1`, the GI50 is 0.515 µM and the TGI is 43.4 µM.
`O=S(=O)(CCn1c(Sc2ccccc2)c(Sc2ccccc2)c2ccccc21)c1ccccc1`: the TGI was greater than 100 µM.
On the same count and under the same terms, then `O=c1[nH]c(Nc2nc3ccccc3[nH]2)nc(O)c1-c1ccccc1`, with greater than 100 µM; and `Cc1ccccc1S(=O)(=O)OC1NS(=O)(=O)c2ccccc21` (stereo not given), with greater than 100 µM.
Consider `O=C(Nc1ccc(Cl)cc1)c1cccc(NC2=C(Cl)C(=O)N(Cc3ccccc3)C2=O)c1`, for which the GI50 was 10.3 µM and the TGI came out at 42.3 µM.
The like results for `Nc1ncnc2n[nH]c(Nc3ccc(F)cc3)c12` were, in that order, 27.7 µM and 89.3 µM.
Taken in the same sequence, the figures for `CCN(CC)c1ccc(-c2cc(-c3cc(OC)c(OC)c(OC)c3)nc(N3CCOCC3)c2C#N)cc1` were 2.03 µM and 17.7 µM.
`CC(=O)OC1=CC(n2cc(F)c(=O)[nH]c2=O)OC(C)C1=O` (stereo not given) had a TGI greater than 76.2 µM.
As for `CC(=O)[C@@]12O[C@@H]1CC1C3CCC4=CC(O)CCC4(C)C3CCC12C` (stereo not given in full), the GI50 was greater than 100 µM and the TGI was greater than 100 µM.
For `NC1(C(=O)OCc2ccccc2)CCCC1`, the TGI is greater than 100 µM.
With `Cc1cc(/C=C/c2ccc3cc(N(C)C)ccc3[n+]2C)c(C)n1-c1ccccc1`, the GI50 is 0.169 µM and the TGI worked out at 3.37 µM.
Taken in the same sequence, the figures for `Cn1cnc([N+](=O)[O-])c1S(=O)(=O)Oc1cccc2ccccc12` were 3.56 µM and 14.5 µM.
For `CCCC(=O)OC1CC(n2cc(F)c(=O)[nH]c2=O)OC1COP(=O)(OCC(Cl)(Cl)Cl)OCC(Cl)(Cl)Cl` (stereo not given), the TGI was greater than 100 µM.
The same measure, in the same setting: next, `COc1cc(OC)cc(-c2cc(=O)c3c(OC)c(OC)c(OC)c(OC)c3o2)c1`: greater than 100 µM.

A further test has as its system KM12 colon. Briefly: DTP human tumour cell line panel, 48 h.
`CCN1CCN(c2nc(C)cc(N(CCNc3ccnc4cc(Cl)ccc34)Cc3ccc4c(c3)OCO4)n2)CC1`: the GI50 is 3.97 µM and the TGI was found to be 15.2 µM.
`COc1c(Cl)c(=O)oc2ccc(Cl)cc12` yielded a TGI greater than 100 µM.
On the same count and under the same terms, then `NS(=O)(=O)c1cc(Br)c(N=Nc2ccc(O)c3ncccc23)c(Br)c1`, with greater than 100 µM.
In the case of `Cc1cc(I)cc(CN(C)CCCN2CCCCC2)c1O`, the GI50 is 16.5 µM and the TGI was found to be 39.6 µM.
`COc1cc(NCc2ccc3oc(=O)c(-c4ccccc4)nc3c2)cc(OC)c1OC` returned a TGI greater than 10 µM.
`CN(C(=O)c1ccc(C(F)(F)F)cc1)c1ccc(Oc2ccc3c(c2)cc(C(=O)N2CCN(Cc4ccc(OC(F)F)cc4)CC2)n3C)nc1`: the GI50 was 35.9 µM and the TGI was greater than 100 µM.
In the case of `O=S(=O)(CCn1c(Sc2ccccc2)c(Sc2ccccc2)c2ccccc21)c1ccccc1`, the TGI was greater than 100 µM.
On the same count and under the same terms, next, `Cc1ccccc1S(=O)(=O)OC1NS(=O)(=O)c2ccccc21` (stereo not given): greater than 100 µM.
As for `O=C(Nc1ccc(Cl)cc1)c1cccc(NC2=C(Cl)C(=O)N(Cc3ccccc3)C2=O)c1`, the GI50 is 48.5 µM and the TGI was greater than 100 µM.
As to `Nc1ncnc2n[nH]c(Nc3ccc(F)cc3)c12`, the GI50 was 20.3 µM and the TGI turned out to be 86.3 µM.
With `CCN(CC)c1ccc(-c2cc(-c3cc(OC)c(OC)c(OC)c3)nc(N3CCOCC3)c2C#N)cc1`, the GI50 was 1.99 µM and the TGI was greater than 85.9 µM.
The molecule `CC(=O)OC1=CC(n2cc(F)c(=O)[nH]c2=O)OC(C)C1=O` (stereo not given) gave a TGI greater than 100 µM.
Consider `CC(=O)[C@@]12O[C@@H]1CC1C3CCC4=CC(O)CCC4(C)C3CCC12C` (stereo not given in full), for which the GI50 is 24.7 µM and the TGI was greater than 100 µM.
Regarding `NC1(C(=O)OCc2ccccc2)CCCC1`, the TGI was greater than 100 µM.
`Cc1cc(/C=C/c2ccc3cc(N(C)C)ccc3[n+]2C)c(C)n1-c1ccccc1`: the GI50 is 0.158 µM and the TGI worked out at 0.843 µM.
Taken in the same sequence, the figures for `Cn1cnc([N+](=O)[O-])c1S(=O)(=O)Oc1cccc2ccccc12` were 10.4 µM and 31.4 µM.
For `CCCC(=O)OC1CC(n2cc(F)c(=O)[nH]c2=O)OC1COP(=O)(OCC(Cl)(Cl)Cl)OCC(Cl)(Cl)Cl` (stereo not given), the total growth inhibition concentration (TGI) is greater than 100 µM.

Source of the values: PubChem BioAssay (NCI).
